EPA's ToxValDB 9.5 (doi:10.2903/j.efsa.2011.2334)
≈ marks a conversion by molar mass, not a printed value.

Legend:
Canidae = conditions: oral, gavage, Dog Other
Lepomis macrochirus = conditions: acute; duration: 96 hours; mortality
Colinus virginianus = conditions: acute; oral; mortality
Anas platyrhynchos = conditions: short-term; oral; feed; mortality
Aleochara bilineata = conditions: chronic/long-term; duration: 28 days; reproduction
Oncorhynchus mykiss = conditions: acute; duration: 96 hours; mortality

Row | SMILES | NOAEL (Canidae; chronic, duration: 1 years, M/F, hematological) [mg/kg-day] | LC50 (Lepomis macrochirus) [µg/mL] | LD50 (Colinus virginianus) [mg/kg-day] | LC50 (Anas platyrhynchos) [mg/kg-day] | LEL (Aleochara bilineata) [g/ha] | NOAEL (Rattus norvegicus; developmental, F, development) [mg/kg-day] | NOAEL (Canidae; subchronic, duration: 90 days, body weight) [mg/kg-day] | LC50 (Oncorhynchus mykiss) [µg/mL] | LD50 (Rattus norvegicus; acute, mortality) [mg/kg-day] | NOAEL (Rattus norvegicus; chronic, duration: 2 years, oral, drinking water, hematological) [mg/kg-day] | NOAEL (Rattus norvegicus; repeat dose other, oral, gavage, body weight) [mg/kg-day]
1 | CNC(=S)[S-].[Na+] [Metam-sodium] | 0.1 | > 0.175 | 211 | > 324 | 608000 | 10 |  |  |  |  | 
2 | CN=C=S [Methyl isothiocyanate] |  |  | 119 | > 183 |  |  | 0.4 | 0.0531 (≈ 0.726 µM) | 147 | 0.44 | 3
